Assay results from patent US20250283038A1, “COMPOUNDS INDUCING PRODUCTION OF PROTEINS BY IMMUNE CELLS” (UNIVERSITE PARIS CITE, priority 2022, published 2025).

Tested on: human B cells
Assay: IL-10 induction in human B cells cultivated with anti-IgM plus CpG, IL-10 measured in cell culture supernatants
Assay type: cell-based
Conditions: 2 consecutive days, molecule at 0.25 μM final concentration
Procedure: Human B cells isolated magnetically through negative selection (B Cell Isolation Kit II, human, Miltenyi ref: 130-091-151) were cultivated for 2 consecutive days in the presence of anti-IgM plus CpG in the presence of the indicated molecule (see table 3) at 0.25μM final concentration. IL-10 was measured in cell culture supernatants.
Human B cells isolated magnetically through negative selection (B Cell Isolation Kit II, human, Miltenyi ref: 130-091-151) were cultivated for 2 consecutive days in the presence of anti-IgM plus CpG in the presence of DMSO (as control) or in the presence of the tested molecules at 0.25 microM final concentration. IL-10 was measured in cell culture supernatants. NS: non stimulated B cell culture condition.

Substance: N-(2-(4-fluorophenyl)imidazo[1,2-a]pyridin-6-yl)-2-methoxybenzamide [Compound 217]
- II-10 Induction Mean (pg/mL) human: 2.06 pg/mL
